Where two headings read alike, the source gives them in different places.
Tests used:
[1] = relative to hydrocortisone; cited from earlier work
[2] = relative to hydrocortisone; cited from earlier work; remark: listed apart in the source
[3] = tested on: hypothalamic-pituitary-adrenal axis suppression; details: cited from earlier work
[4] = tested on: patients with septic shock; details: hydrocortisone alone; cited from earlier work
[5] = tested on: adult patients with severe sepsis who were not in septic shock; experiment: HYPRESS case-control analysis, hydrocortisone vs. placebo by bio-ADM </>70 pg/mL (PP population); assay type: in vivo, human; details: for patients who developed shock: PP population
Procedure: The HYPRESS study is a double-blind, randomized clinical trial conducted from Jan. 13, 2009, to Aug. 27, 2013, with a follow-up of 180 days until Feb. 23, 2014 (Keh et al. 2016. JAMA 316(17): 1775-1785). The trial was performed in 34 intermediate or intensive care units of university and community hospitals in Germany, and it included 380 adult patients with severe sepsis who were not in septic shock.
Patients were screened in intermediate care units or intensive care units (ICUs) of university and community hospitals for eligibility, and written informed consent was obtained from patients, patient-authorized representatives, or legal representatives. Patients were enrolled if they met all inclusion criteria: (1) provided informed consent; (2) had evidence of infection; (3) had evidence of a systemic response to infection, defined as at least 2 systemic inflammatory response syndrome criteria 12; and (4) had evidence of organ dysfunction present for not longer than 48 hours. The main exclusion criterion was septic shock. Other exclusion criteria were being younger than 18 years, having known hypersensitivity to hydrocortisone or mannitol (placebo), or having a history of glucocorticoid medication with indication for continuation of therapy or other indications for treatment with glucocorticoids. Patients were not excluded for using etomidate within 72 hours before enrolment, using a short course of glucocorticoids within 72 hours before enrolment, or using topical or inhaled glucocorticoids.
Septic shock was defined as sepsis-induced hypotension despite adequate volume status for longer than 4 hours (ie, mean arterial pressure <65 mm Hg, systolic arterial pressure <90 mm Hg, or the use of vasopressors to keep mean arterial pressure ≥65 mm Hg or systolic arterial pressure ≥90 mm Hg). […] Adequate volume status was defined as a central venous pressure of 8 mm Hg or greater (≥12 mm Hg in ventilated patients) and a central venous oxygen saturation greater than 70%. For fluid replacement, patients were to receive at least 500 to 1000 mL of crystalloids or 300 to 500 mL of colloids over 30 minutes. The use of hydroxyethyl starch preparations was discouraged owing to possible harmful effects on kidney function. Use of vasopressors was defined as therapy with dopamine at a dosage of at least 5 μg/kg/min or with any dose of epinephrine, norepinephrine, vasopressin, or other vasopressors.
The study medication (hydrocortisone and placebo) was produced and released by BAG Health Care GmbH. The medication was delivered in boxes, each containing 17 brown glass vials for 1 patient. Each vial contained 100 mg of lyophilized hydrocortisone hydrogen succinate or the same amount of lyophilized mannitol as placebo, which was indistinguishable from hydrocortisone. The medication was administered as an intravenous bolus of 50 mg, followed by a 24-hour continuous infusion of 200 mg on 5 days, 100 mg on days 6 and 7, 50 mg on days 8 and 9, and 25 mg on days 10 and 11.
For the present analysis, a total of n=110 cases and controls from the intention-to-treat data set of the SepNet study HYPRESS study (ClinicalTrials.gov number: NCT00670254) were selected, of which n=97 were treated according to protocol and selected for the analysis. Patients with and without septic shock during their ICU stay were selected at a 1:1 ratio. Control patients were matched according to demographics, organ dysfunction, concomitant medication and other outcomes.
The primary end point for the case-control study was the occurrence of septic shock within 28 days, or discharge from the ICU. The goal was to identify potential interaction between the levels of bio-ADM (</>70 pg/mL) and treatment arm (hydrocortisone vs. placebo).

[6] = tested on: patients at risk for sepsis / septic shock; details: preventive administration; cited from earlier work
[7] = Stability of human Adrenomedullin in human Citrate plasma at 24° C.; assay type: in vitro ADME; details: for recovery: 10 ng ADM/ml, read-out: Average ADM recovery (N = 5); for Average loss of immune reactivity: average over time points
Procedure: Human ADM was diluted in human Citrate plasma (n=5, final concentration 10 ng ADM/ml) and incubated at 24° C. At selected time points, aliquots were frozen at −20° C.

CC(=O)OCC(=O)[C@@]1(O)CC[C@H]2[C@@H]3CCC4=CC(=O)CC[C@]4(C)[C@H]3C(=O)C[C@@]21C [Cortisone acetate]
Potency relat. to hydrocortisone, Anti-inflammatory [1]: 0.8
Potency relat. to hydrocortisone, Mineralcorticoid [2]: 0.8
Half-life duration of action [3]: 8 to 12 h

C[C@]12CCC(=O)C=C1CC[C@H]1[C@@H]3CC[C@](O)(C(=O)CO)[C@@]3(C)C[C@H](O)[C@@]12F [Fludrocortisone]
Half-life duration of action [3]: 24 to 36 h

C[C@]12CCC(=O)C=C1CC[C@@H]1[C@@H]2[C@@H](O)C[C@@]2(C)[C@H]1CC[C@]2(O)C(=O)CO [Hydrocortisone]
Potency relat. to hydrocortisone, Anti-inflammatory [1]: 1
survival effect [4]: no survival effect
needed additional treatment with Benzodiazepine ([5]; patients with bio-AD<70 pg/mL): 12.0%
median length of stay ([5]; patients with bio-ADM<70 pg/mL): 22 days
needed a surgical intervention ([5]; patients with bio-ADM<70 pg/mL): 48.0%
needed additional treatment with Propofol ([5]; patients with bio-ADM<70 pg/mL): 16.0%
needed additional treatment with opioids ([5]; patients with bio-ADM<70 pg/mL): 40.0%
survived the 90-day follow up ([5]; patients with bio-ADM<70 pg/mL): 76.0%
patients who developed shock ([5]; patients with bio-ADM<70 pg/mL): 40%
median length of stay ([5]; patients with bio-ADM>70 pg/mL): 25 days
needed a surgical intervention ([5]; patients with bio-ADM>70 pg/mL): 27.3%
needed additional treatment with Benzodiazepine ([5]; patients with bio-ADM>70 pg/mL): 13.6%
needed additional treatment with Propofol ([5]; patients with bio-ADM>70 pg/mL): 4.5%
needed additional treatment with opioids ([5]; patients with bio-ADM>70 pg/mL): 31.8%
survived the 90-day follow up ([5]; patients with bio-ADM>70 pg/mL): 72.7%
patients who developed shock ([5]; patients with bio-ADM>70 pg/mL): 50%
Potency relat. to hydrocortisone, Mineralcorticoid [2]: 1
risk of a septic shock within 14 days [6]: doesn't reduces the risk
Half-life duration of action [3]: 8 to 12 h

C[C@H]1C[C@@H]2[C@H]([C@@H](O)C[C@@]3(C)[C@H]2CC[C@]3(O)C(=O)CO)[C@@]2(C)C=CC(=O)C=C12 [Methylprednisolone]
Half-life duration of action [3]: 12 to 36 h

C[C@]12C=CC(=O)C=C1CC[C@@H]1[C@@H]2[C@@H](O)C[C@@]2(C)[C@H]1CC[C@]2(O)C(=O)CO [Prednisolone]
Potency relat. to hydrocortisone, Anti-inflammatory [1]: 4
Potency relat. to hydrocortisone, Mineralcorticoid [2]: 0.8
Half-life duration of action [3]: 12 to 36 h

C[C@]12C=CC(=O)C=C1CC[C@@H]1[C@@H]2C(=O)C[C@@]2(C)[C@H]1CC[C@]2(O)C(=O)CO [Prednisone]
Half-life duration of action [3]: 12 to 36 h

CC[C@H](C)[C@H](NC(=O)[C@H](CCC(N)=O)NC(=O)[C@H](Cc1c[nH]cn1)NC(=O)[C@H](C)NC(=O)[C@H](CC(C)C)NC(=O)[C@H](CCCCN)NC(=O)[C@H](CCC(N)=O)NC(=O)[C@@H](NC(=O)[C@@H](NC(=O)[C@@H]1CSSC[C@H](NC(=O)CNC(=O)[C@H](Cc2ccccc2)NC(=O)[C@H](CO)NC(=O)[C@H](CCCNC(=N)N)NC(=O)[C@H](CC(C)C)NC(=O)CNC(=O)[C@H](CCC(N)=O)NC(=O)[C@H](Cc2ccccc2)NC(=O)[C@H](CC(N)=O)NC(=O)[C@H](CC(N)=O)NC(=O)[C@H](CCSC)NC(=O)[C@H](CO)NC(=O)[C@H](CCC(N)=O)NC(=O)[C@H](CCCNC(=N)N)NC(=O)[C@@H](N)Cc2ccc(O)cc2)C(=O)N[C@@H](CCCNC(=N)N)C(=O)N[C@@H](Cc2ccccc2)C(=O)NCC(=O)N[C@@H]([C@@H](C)O)C(=O)N1)[C@@H](C)O)C(C)C)C(=O)N[C@@H](Cc1ccc(O)cc1)C(=O)N[C@@H](CCC(N)=O)C(=O)N[C@@H](Cc1ccccc1)C(=O)N[C@H](C(=O)N[C@@H](CC(=O)O)C(=O)N[C@@H](CCCCN)C(=O)N[C@@H](CC(=O)O)C(=O)N[C@@H](CCCCN)C(=O)N[C@@H](CC(=O)O)C(=O)N[C@@H](CC(N)=O)C(=O)N[C@H](C(=O)N[C@@H](C)C(=O)N1CCC[C@H]1C(=O)N[C@@H](CCCNC(=N)N)C(=O)N[C@@H](CO)C(=O)N[C@@H](CCCCN)C(=O)N[C@H](C(=O)N[C@@H](CO)C(=O)N1CCC[C@H]1C(=O)N[C@@H](CCC(N)=O)C(=O)NCC(=O)N[C@@H](Cc1ccc(O)cc1)C(N)=O)[C@@H](C)CC)C(C)C)[C@@H](C)O [hADM]
recovery ([7]; 0 h): 100%
Loss of immune reactivity %/h ([7]; 2 h): 0.4 %/h
recovery ([7]; 2 h): 99.2%
Loss of immune reactivity %/h ([7]; 4 h): 0.8 %/h
recovery ([7]; 4 h): 96.4%
Loss of immune reactivity %/h ([7]; 8 h): 1.5 %/h
recovery ([7]; 8 h): 88.2%
Average loss of immune reactivity [7]: Average: 0.9%/h
Average loss of immune reactivity ([7]; listed as ADM): 0.9 %/h
metabolised at 2 h, 10 ng/ml ([7]; human citrate plasma, 2 h, read-out: Relative loss of immune reactivity): 0.8%
metabolised at 4 h, 10 ng/ml ([7]; human citrate plasma, 4 h, read-out: Relative loss of immune reactivity): 3.6%
metabolised at 8 h, 10 ng/ml ([7]; human citrate plasma, 8 h, read-out: Relative loss of immune reactivity): 11.8%

— patent US20240255531A1, “MATURE ADRENOMEDULLIN FOR THERAPY STRATIFICATION OF CORTICOSTEROIDS IN CRITICALLY ILL PATIENTS” (priority 2021, published 2024)
